Laboratory results published in article PMC7883289, “Synthesis of Paeonol-Ozagrel Conjugate: Structure Characterization and In Vivo Anti-Ischemic Stroke potential” (Frontiers in Pharmacology, 2021).

Tests used:
PC12 cells = assay: Cell viability, CCK8 method; format: cell-based, Rat; settings: 24 h, CCK8, tested 37.5 to 1,200.0 μM
Method: Rat PC12 pheochromocytoma cells were obtained from the Cell Resource Center, Peking Union Medical College. PC12 cells were grown as monolayers in tissue culture flasks at 37°C under a humidified, 5% CO2 atmosphere in the high–glucose Dulbecco’s Modified Eagle Medium (DMEM) medium.
The CCK8 (MedChemExpress, United States) method was used to estimate the cytotoxic effects of POC. Before treatment, the cells were seeded onto 96-well culture plates at an appropriate density according to the experimental protocol. After 24 h, the medium was replaced with fresh medium containing varying concentrations (37.5, 75.0, 150.0, 300.0, 600.0, 1,200.0 μM) from the POC serial dilutions. And PC12 was allowed to grow for another 24 h. After incubation, the cell viability was evaluated using the CCK8 assay. The absorbance was read at 450 nm on a microplate reader. These cell viability experiments were made in triplicate.

[1] = Partition coefficient, shake-flask method (n-octanol / aqueous phase); format: physicochemical; settings: n-octanol / aqueous phase buffered with phosphate pH 7.4, shake-flask, HPLC
Method: The partition coefficient of POC was established by the shake-flask method between n–octanol and an aqueous phase ([Redasani and Bari, 2012]). The aqueous phase buffered with phosphate (pH 7.4, 100 ml) and n–octanol (100 ml) was mixed well, placed in a shaking air bath for 72 h, and then left to equilibrate until the two saturated phases completely separated. POC (5 mg) was dissolved in 50 ml of saturated n-octanol and diluted with the saturated aqueous equally. The mixture was placed in an oscillator and shaken for 1 h until the two phases separated. Concentration was analyzed by HPLC method and then the partition coefficient was calculated as the ratio of the concentration of POC in n–octanol to aqueous. All experiments were made in triplicate.

logD [1]: 0.425
SMILES: COc1ccc(C(C)=O)c(OC(=O)C=Cc2ccc(Cn3ccnc3)cc2)c1 [POC, paeonol-ozagrel conjugate]
concentration with no viability loss / no toxic effect (PC12 cells): less than 75 μM
